This is an account of results in ChEMBL document CHEMBL4420060, “Combinatorial therapies for the treatment of neoplasias using the opioid growth factor receptor” (2013).

Structures are written as SMILES. Activity calls are given as the source filed them. The calls are words filed in the database; no cut-off is given here.

For one experiment, the system named is MIA PaCa-2. In words: Growth inhibition of human MIAPaCa2 cells assessed as decrease in cell number at 1 uM incubated for 96 hrs by MTS assay relative to control. The experiment is classed as functional. (Tetrazolium assays rely on reduction of a dye to a coloured formazan, in cell work by metabolically active cells.)
Another experiment concerns UMSCC1. In words: Growth inhibition of human UM-SCC-1 cells assessed as decrease in cell number at 1 uM by MTS assay relative to control. In kind it is functional, cell-based.

`CC(C)C[C@@H](NC(=O)[C@H](Cc1ccccc1)NC(=O)CNC(=O)[C@@H](C)NC(=O)[C@@H](N)Cc1ccc(O)cc1)C(=O)O`: the “growth inhibition (GI)” value in the experiment with MIA PaCa-2 and in the experiment on UMSCC1 was “inactive” in each case. As to `CC1(C)SSC(C)(C)[C@@H](NC(=O)[C@@H](N)Cc2ccc(O)cc2)C(=O)NCC(=O)N[C@@H](Cc2ccccc2)C(=O)N[C@H]1C(=O)O`, the “growth inhibition (GI)” value in the experiment with MIA PaCa-2 and in the experiment with UMSCC1 was “inactive” throughout.

As for `CC[C@H](C)C(NC(=O)[C@@H](NC(=O)[C@H](C)NC(=O)[C@H](CC(N)=O)NC(=O)[C@H](CCCCN)NC(=O)[C@H](Cc1ccccc1)NC(=O)[C@H](CC(C)C)NC(=O)[C@@H](NC(=O)[C@@H](NC(=O)[C@H](CC(C)C)NC(=O)[C@@H]1CCCN1C(=O)[C@@H](NC(=O)[C@H](CCC(N)=O)NC(=O)[C@H](CO)NC(=O)[C@H](CCCCN)NC(=O)[C@H](CCC(=O)O)NC(=O)[C@H](CO)NC(=O)[C@@H](NC(=O)[C@H](CCSC)NC(=O)[C@H](Cc1ccccc1)NC(=O)CNC(=O)CNC(=O)[C@@H](N)Cc1ccc(O)cc1)[C@@H](C)O)C(C)O)C(C)C)[C@@H](C)O)[C@@H](C)CC)C(=O)N[C@@H](CCCCN)C(=O)N[C@@H](CC(N)=O)C(=O)N[C@@H](C)C(=O)N[C@@H](Cc1ccc(O)cc1)C(=O)N[C@@H](CCCCN)C(=O)N[C@@H](CCCCCN)C(=O)NCC(=O)N[C@@H](CCC(=O)O)C(=O)O` (some centres not stated), the “growth inhibition (GI)” value in the experiment on MIA PaCa-2 is “inactive”.

As to `C[C@@H](NC(=O)[C@@H](N)Cc1ccc(O)cc1)C(=O)NCC(=O)N(C)[C@@H](Cc1ccccc1)C(=O)NCCO`, the “growth inhibition (GI)” value with MIA PaCa-2 and with UMSCC1 was “inactive” throughout.
